{"source": "patent US9566334B2", "about": "“Combinations of a PI3K/AKT inhibitor compound with an HER3/EGFR inhibitor compound and use thereof in the treatment of a hyperproliferative disorder” (THE GENERAL HOSPITAL CORPORATION, priority 2012, dated 2017)", "system": "TNBC patients", "test": "Neoadjuvant trial of panitumumab with standard chemotherapy (pCR, EGFR and HER3 IHC)", "format": "in vivo, human", "description": "Patient samples: Tumor tissue was fixed in 10%-buffered formalin for 48 h and further embedded in paraffin. Four-micron sections were deparaffinized in xylene and hydrated in graded alcohols. For EGFR detection, the antigen was retrieved by protease treatment (8 min at 37° C.) and the sections further incubated at 37° C. for 1 h with pre-diluted, ready-to-use mouse monoclonal anti-EGFR (clone 3C6, Ventana, Tucson, Ariz.). The antigen-antibody reaction was visualized by UltraView DAB reveal system in a Benchmark XT automated IHC stainer (all from Ventana). For HER3, the antigen retrieval was performed by heating the sections at 97° C. for 20 min in EnVision® Target Retrieval Solution High pH (Dako) in PT-Link apparatus (Dako). The tissues were then incubated at 37° C. for 2 h with mouse monoclonal anti-HER3 (clone DAK-H3-IC, Dako, Glostrup, Denmak) diluted at 1:50. […] For each patient the pre-treatment and the post-treatment tumor sample were run together. IHC staining was interpreted by an expert pathologist who was blind to patient information. Both EGFR and HER3 expressions were quantified using an arbitrary scale having 0, 0.5, 1, 1.5, 2, 2.5 and 3 as measures of increasing staining intensity. EGFR and HER3 histoscores were defined as a sum of products obtained by multiplying the staining intensity with the percentage of stained cells.\nFFPE specimens for IHC analyses of EGFR and HER3 expression were obtained from the institutions participating in two French multicenter pilot phase II neoadjuvant trials which tested the efficacy of an anti-EGFR antibody combined to chemotherapy in TNBC stage II-IIIA pts. One trial regimen consisted of 8 cycles, administered each 3 weeks. First 4 cycles contained 9 mg/kg of panitumumab combined with 500 mg/m2 of each 5-fluorouracil and cyclophosphamide plus 100 mg/m2 of epirubicin. Last 4 cycles had panitumumab with 100 mg/m2 docetaxel instead of 3 cytotoxics previously mentioned. […] All patients underwent surgery at completion of treatment. Pathologic complete response (pCR) was the primary endpoint with clinical response and toxicity as secondary endpoints. […] Tumor tissue samples were systematically collected before and at the end of the neoadjuvant treatment and collection was centralized at the Jean Perrin Comprehensive Cancer Center where molecular and pathological analyses were performed. pCR was evaluated using Chevallier's (Chevallier et al., American Journal of Clinical Oncology 16, 223 (1993)) and Sataloff's (Sataloff et al., Journal of the American College of Surgeons 180, 297 (1995)) classifications.", "key": {"[1]": {"settings": "pre-treatment EGFR histoscore more than 70"}, "[2]": {"settings": "pre-treatment EGFR histoscore ≦70"}}, "data": [{"substance": "panitumumab: anti-EGFR antibody, epidermal growth factor receptor antagonist", "values": [{"measurement": "residual disease at the time of surgery, rate", "setting": "40 patients", "value": 52.5, "unit": "%"}, {"measurement": "pathological complete response (pCR) rate", "setting": "40 patients, panitumumab with 4 standard cytotoxic agents, 24 weeks", "value": 47.5, "unit": "%"}, {"measurement": "increase in pCR compared to TNBC patients treated only with cytotoxics-based neoadjuvant chemotherapy", "setting": "comparison with Liedtke et al. 2008", "value": "two-fold increase"}, {"measurement": "patients with residual disease at the time of surgery", "setting": "of 40 patients", "value": 21}, {"measurement": "patients achieving pathological complete response (pCR)", "setting": "of 40 patients, panitumumab with 4 standard cytotoxic agents, 24 weeks", "value": 19}, {"measurement": "non-pCR patients with higher HER3 expression in residual lesions versus pre-treatment (IHC)", "setting": "p equals 0.010", "value": "7 out of 13"}, {"measurement": "non-pCR patients with decreased EGFR levels in residual tumors versus baseline (IHC)", "setting": "p equals 0.07", "value": "nine out of 21"}, {"measurement": "pCR rate", "setting": "[1]", "value": 58, "unit": "%"}, {"measurement": "patients with pCR", "setting": "[1]", "value": "15 out of 26"}, {"measurement": "complete tumor regression rate", "setting": "[2]", "value": 28, "unit": "%"}, {"measurement": "patients with complete tumor regression", "setting": "[2]", "value": "4 out of 14"}]}]}
